Tests used:
Test in all cases: KINOMEscan competition binding
PLK4 (human) = PLK4 (human) (UniProt O00444)
ALK (human) = ALK (human) (UniProt Q9UM73)
RPS6KA5 KD1 (human) = RPS6KA5 KD1 (human) (UniProt O75582)
RPS6KA2 KD2 (human) = RPS6KA2 KD2 (human) (UniProt Q15349)
PIM1 (human) = PIM1 (human) (UniProt P11309)
STK39 (human) = STK39 (human) (UniProt Q9UEW8)
MAP4K3 (human) = MAP4K3 (human) (UniProt Q8IVH8)
EPHA4 (human) = EPHA4 (human) (UniProt P54764)
RPS6KA6 KD2 (human) = RPS6KA6 KD2 (human) (UniProt Q9UK32)
CDKL2 (human) = CDKL2 (human) (UniProt Q92772)
TEK (human) = TEK (human) (UniProt Q02763)
TNIK (human) = TNIK (human) (UniProt Q9UKE5)
CHEK2 (human) = CHEK2 (human) (UniProt O96017)
PI4KB (human) = PI4KB (human) (UniProt Q9UBF8)
[1] = biological target: ABL1 (human), P00519 [F317L]
FGR (human) = FGR (human) (UniProt P09769)
MAPK15 (human) = MAPK15 (human) (UniProt Q8TD08)
[2] = biological target: ABL1 (human), P00519 [Q252H]
ABL1 (human) = ABL1 (human) (UniProt P00519)
MAP3K12 (human) = MAP3K12 (human) (UniProt Q12852)
AURKC (human) = AURKC (human) (UniProt Q9UQB9)
MAP4K5 (human) = MAP4K5 (human) (UniProt Q9Y4K4)
EPHA8 (human) = EPHA8 (human) (UniProt P29322)
MAP4K4 (human) = MAP4K4 (human) (UniProt O95819)
PTK2 (human) = PTK2 (human) (UniProt Q05397)
SLK (human) = SLK (human) (UniProt Q9H2G2)

MAP4K3 (human), sequence (Q8IVH8 whole entry, looked up): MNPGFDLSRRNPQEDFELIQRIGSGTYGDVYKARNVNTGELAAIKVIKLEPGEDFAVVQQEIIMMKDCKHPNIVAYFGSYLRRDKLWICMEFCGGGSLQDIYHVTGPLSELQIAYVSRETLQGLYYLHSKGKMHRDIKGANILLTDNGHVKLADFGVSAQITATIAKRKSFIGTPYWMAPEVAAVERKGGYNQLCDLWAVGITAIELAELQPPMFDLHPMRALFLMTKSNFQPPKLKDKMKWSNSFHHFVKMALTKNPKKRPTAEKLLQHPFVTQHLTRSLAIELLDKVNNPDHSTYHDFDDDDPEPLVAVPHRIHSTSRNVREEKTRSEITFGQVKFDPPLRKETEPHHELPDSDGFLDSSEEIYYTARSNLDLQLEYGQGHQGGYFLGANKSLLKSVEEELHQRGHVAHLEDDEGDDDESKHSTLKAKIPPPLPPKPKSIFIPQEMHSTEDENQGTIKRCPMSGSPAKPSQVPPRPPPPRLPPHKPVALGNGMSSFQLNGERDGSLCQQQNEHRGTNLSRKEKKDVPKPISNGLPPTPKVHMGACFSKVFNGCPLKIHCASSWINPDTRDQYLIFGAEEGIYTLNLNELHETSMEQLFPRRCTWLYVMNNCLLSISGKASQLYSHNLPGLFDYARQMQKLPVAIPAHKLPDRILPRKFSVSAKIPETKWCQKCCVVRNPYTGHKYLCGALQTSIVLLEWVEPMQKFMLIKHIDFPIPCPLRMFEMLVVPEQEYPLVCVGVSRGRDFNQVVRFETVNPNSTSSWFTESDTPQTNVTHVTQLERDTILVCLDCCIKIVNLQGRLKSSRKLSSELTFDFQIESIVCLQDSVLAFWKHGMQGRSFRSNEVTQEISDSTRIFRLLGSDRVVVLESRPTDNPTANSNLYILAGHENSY
PIM1 (human), sequence (P11309 whole entry, looked up): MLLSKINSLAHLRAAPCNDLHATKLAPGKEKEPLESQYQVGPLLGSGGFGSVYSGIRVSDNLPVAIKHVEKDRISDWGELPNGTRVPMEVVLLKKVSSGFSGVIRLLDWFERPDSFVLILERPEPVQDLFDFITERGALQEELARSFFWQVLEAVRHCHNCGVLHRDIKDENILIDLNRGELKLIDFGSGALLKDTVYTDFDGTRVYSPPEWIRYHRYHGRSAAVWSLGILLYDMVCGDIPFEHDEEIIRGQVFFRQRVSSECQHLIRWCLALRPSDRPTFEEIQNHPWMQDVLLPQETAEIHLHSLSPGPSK
PLK4 (human), sequence (O00444 whole entry, looked up): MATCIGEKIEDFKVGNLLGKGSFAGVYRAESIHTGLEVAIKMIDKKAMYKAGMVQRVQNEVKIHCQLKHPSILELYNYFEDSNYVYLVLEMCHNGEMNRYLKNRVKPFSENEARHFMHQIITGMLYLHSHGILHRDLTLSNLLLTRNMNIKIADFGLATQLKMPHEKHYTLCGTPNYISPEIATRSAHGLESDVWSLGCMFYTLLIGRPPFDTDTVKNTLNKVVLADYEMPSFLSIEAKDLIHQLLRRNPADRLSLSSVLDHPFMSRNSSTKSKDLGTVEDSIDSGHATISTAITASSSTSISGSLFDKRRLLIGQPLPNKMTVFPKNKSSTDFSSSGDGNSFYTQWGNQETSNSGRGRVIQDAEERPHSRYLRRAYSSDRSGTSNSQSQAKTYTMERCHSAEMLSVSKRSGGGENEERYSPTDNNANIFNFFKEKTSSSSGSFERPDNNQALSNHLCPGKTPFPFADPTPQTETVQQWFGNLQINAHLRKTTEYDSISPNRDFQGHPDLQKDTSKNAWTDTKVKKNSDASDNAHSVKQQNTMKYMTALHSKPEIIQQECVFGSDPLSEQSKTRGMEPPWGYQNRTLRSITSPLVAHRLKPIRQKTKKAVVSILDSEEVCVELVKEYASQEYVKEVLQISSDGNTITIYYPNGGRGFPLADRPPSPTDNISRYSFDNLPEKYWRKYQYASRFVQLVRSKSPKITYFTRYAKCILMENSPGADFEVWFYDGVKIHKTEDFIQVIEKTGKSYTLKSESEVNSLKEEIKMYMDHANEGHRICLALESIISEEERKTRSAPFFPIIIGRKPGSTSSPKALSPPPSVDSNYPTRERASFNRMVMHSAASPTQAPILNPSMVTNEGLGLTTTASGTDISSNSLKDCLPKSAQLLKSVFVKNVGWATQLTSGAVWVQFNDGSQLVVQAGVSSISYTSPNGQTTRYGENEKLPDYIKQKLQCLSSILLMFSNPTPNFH
MAP4K4 (human), sequence (O95819 whole entry, looked up): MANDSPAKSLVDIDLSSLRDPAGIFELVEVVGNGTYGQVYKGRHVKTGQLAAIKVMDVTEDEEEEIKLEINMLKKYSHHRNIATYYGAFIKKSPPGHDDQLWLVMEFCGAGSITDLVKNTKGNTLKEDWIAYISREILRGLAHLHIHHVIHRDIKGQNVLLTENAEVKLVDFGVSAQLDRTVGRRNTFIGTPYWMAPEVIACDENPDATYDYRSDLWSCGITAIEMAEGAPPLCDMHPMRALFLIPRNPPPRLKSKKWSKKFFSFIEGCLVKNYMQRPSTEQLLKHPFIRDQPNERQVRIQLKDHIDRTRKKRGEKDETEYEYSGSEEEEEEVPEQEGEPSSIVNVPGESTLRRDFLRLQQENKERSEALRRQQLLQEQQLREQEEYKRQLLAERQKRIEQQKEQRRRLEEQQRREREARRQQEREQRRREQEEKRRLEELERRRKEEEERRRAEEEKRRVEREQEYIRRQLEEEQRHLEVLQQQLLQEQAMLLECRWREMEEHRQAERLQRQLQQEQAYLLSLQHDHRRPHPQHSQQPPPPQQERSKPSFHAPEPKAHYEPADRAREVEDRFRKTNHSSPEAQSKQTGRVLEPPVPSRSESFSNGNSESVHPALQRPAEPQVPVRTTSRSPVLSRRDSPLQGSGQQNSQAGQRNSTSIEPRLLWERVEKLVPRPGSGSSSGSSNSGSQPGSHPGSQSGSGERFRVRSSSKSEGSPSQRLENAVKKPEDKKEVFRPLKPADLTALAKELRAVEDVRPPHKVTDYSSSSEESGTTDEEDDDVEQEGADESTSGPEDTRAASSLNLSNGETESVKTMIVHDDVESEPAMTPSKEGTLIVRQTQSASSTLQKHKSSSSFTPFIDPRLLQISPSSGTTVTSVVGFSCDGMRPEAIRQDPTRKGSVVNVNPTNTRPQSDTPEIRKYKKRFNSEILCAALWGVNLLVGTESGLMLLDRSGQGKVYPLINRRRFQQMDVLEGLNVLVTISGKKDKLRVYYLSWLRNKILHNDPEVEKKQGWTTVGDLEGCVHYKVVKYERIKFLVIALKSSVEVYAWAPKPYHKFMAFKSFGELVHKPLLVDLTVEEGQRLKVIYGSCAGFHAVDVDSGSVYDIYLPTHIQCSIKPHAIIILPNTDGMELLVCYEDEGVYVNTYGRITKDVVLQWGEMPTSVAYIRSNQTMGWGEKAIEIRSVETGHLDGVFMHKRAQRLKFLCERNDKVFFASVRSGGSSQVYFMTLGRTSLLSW
EPHA4 (human), sequence (P54764 whole entry, looked up): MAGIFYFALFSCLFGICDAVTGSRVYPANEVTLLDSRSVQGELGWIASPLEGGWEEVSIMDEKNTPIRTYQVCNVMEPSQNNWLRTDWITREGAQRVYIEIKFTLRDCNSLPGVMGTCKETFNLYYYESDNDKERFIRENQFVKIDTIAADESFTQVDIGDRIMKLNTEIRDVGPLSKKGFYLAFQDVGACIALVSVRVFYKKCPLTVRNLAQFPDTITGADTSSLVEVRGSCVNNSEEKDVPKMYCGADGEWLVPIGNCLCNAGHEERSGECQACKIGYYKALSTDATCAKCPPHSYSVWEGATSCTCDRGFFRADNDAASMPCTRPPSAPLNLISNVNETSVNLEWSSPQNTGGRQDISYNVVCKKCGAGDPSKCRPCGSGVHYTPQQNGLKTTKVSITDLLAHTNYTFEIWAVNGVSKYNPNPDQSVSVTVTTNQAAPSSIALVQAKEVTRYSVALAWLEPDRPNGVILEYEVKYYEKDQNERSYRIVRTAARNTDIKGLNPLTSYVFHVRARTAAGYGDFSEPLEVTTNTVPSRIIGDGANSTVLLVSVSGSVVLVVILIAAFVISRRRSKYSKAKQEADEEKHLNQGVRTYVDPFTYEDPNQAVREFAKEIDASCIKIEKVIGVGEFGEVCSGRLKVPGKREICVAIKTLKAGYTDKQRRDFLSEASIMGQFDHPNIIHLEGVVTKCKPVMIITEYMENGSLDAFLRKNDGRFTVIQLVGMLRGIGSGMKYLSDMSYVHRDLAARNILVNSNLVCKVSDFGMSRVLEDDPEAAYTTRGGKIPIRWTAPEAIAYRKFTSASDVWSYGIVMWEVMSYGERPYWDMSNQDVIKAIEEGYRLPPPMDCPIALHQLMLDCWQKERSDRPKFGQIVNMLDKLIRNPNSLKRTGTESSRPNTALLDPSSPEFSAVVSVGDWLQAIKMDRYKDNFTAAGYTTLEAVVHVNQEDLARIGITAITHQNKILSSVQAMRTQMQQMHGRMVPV
AURKC (human), sequence (Q9UQB9 whole entry, looked up): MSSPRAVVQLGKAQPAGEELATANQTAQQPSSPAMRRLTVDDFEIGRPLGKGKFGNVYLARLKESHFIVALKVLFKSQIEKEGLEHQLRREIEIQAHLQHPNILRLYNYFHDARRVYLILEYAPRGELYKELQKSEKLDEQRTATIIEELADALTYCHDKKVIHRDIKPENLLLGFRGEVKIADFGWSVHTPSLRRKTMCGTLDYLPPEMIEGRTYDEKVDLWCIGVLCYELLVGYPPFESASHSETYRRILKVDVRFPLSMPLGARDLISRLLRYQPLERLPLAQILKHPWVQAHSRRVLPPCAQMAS

Kd (PLK4 (human)): 15000 nM | Kd (ALK (human)): 34000 nM | Kd (RPS6KA5 KD1 (human)): 13000 nM | Kd (RPS6KA2 KD2 (human)): 33000 nM | Kd (PIM1 (human)): 29000 nM | Kd (STK39 (human)): 37000 nM | Kd (MAP4K3 (human)): 2300 nM | Kd (EPHA4 (human)): 31 nM | Kd (RPS6KA6 KD2 (human)): 6400 nM | Kd (CDKL2 (human)): 43 nM | Kd (TEK (human)): 130 nM | Kd (TNIK (human)): 66 nM | Kd (CHEK2 (human)): 8700 nM | Kd (PI4KB (human)): 29000 nM | Kd [1]: 3.8 nM | Kd (FGR (human)): 110 nM | Kd [2]: 9.9 nM | Kd (ABL1 (human)): 2.8 nM | Kd (MAP3K12 (human)): 35000 nM | Kd (AURKC (human)): 10000 nM | Kd (MAP4K5 (human)): 29 nM | Kd (EPHA8 (human)): 14 nM | Kd (MAP4K4 (human)): 56 nM | Kd (PTK2 (human)): 7500 nM | Kd (SLK (human)): 20 nM
SMILES: COc1cc2ncnc(Oc3cccc(NC(=O)Nc4cc(C(C)(C)C(F)(F)F)on4)c3)c2cc1OC
Kd (MAPK15 (human)): 94 nM
